The values below come from patent US8778959B2, “AZA-bridged ring-fused indoles and indolines” (AbbVie Inc., priority 2009, dated 2014).

For series [1], the system named is primary postnatal (P0) cortical cells. The series can be described thus: Neurite Outgrowth Assay (Aβ1-42-treated cortical cells). In kind it is cell-based, rat. The following applies: n = 1; for % Attenuation Effect of 5 μM Aβ 1-42: 5 μM Aβ1-42; for Emax: Rattus norvegicus, maximum response relative to 300 nM dimebolin, at the concentration given, read-out: Maximum Effect (of % 300 nM Dimebolin) at Concentration; for Concentration (nM) of Maximum Effect: test compound concentration at which the maximum response was noted. The procedure:
In addition to PC12 cells, other cellular model systems may also be used. Rat cortical cells can be cultured and prepared for high content microscopy analysis as previously described (Hu, M.; Schurdak, M. E.; et al. High content screen microscopy analysis of Aβ1-42-induced neurite outgrowth reduction in rat primary cortical neurons: Neuroprotective effects of α7 neuronal nicotinic acetylcholine receptor ligands. Brain Res. 2007, 1151, 227-235). Briefly, cortical cell cultures are plated at density of 5×10^5 cells/mL onto poly-D-lysine coated 96-well plates and maintained in a cell incubator at 37° C. with 5% CO2. Experiments are performed using 6-7 day-old cortical cell cultures by treating with test compounds. In some experiments, the effect of test compounds on reversing Aβ toxicity can also be measured (Hu, M.; Schurdak, M. E.; et al. High content screen microscopy analysis of Aβ1-42-induced neurite outgrowth reduction in rat primary cortical neurons: Neuroprotective effects of α7 neuronal nicotinic acetylcholine receptor ligands. Brain Res. 2007, 1151, 227-235). For assessment of neuroprotective effects, cells are first pretreated with test compounds for about 5 hours. Medium is then replaced with the medium containing freshly prepared about 5 μM Aβ1-42 peptide in the absence or presence of the test compounds for 3 days. The untreated group contains the same percentage of vehicle (DMSO) as in the treatment groups. Cells are fixed with approximately 4% paraformaldehyde containing 0.5% Hoechst 33342 for about 15 minutes, followed by three washes using PBS (pH 7.4) and blocked with 10% donkey serum in PBS for 1 hour at room temperature. The cells are then incubated overnight at about 4° C. with mouse anti-tubulin monoclonal antibody (1:100) for staining neurons and rabbit anti-GFAP (1:1000) for staining glia. In the next day, cells are incubated with FITC-labeled anti-mouse and TRITC-labeled anti-rabbit antibodies (1:1000) for about 1 hour at room temperature. After fixing and staining the cells, nuclei (360/400 nm excitation and 465/300 nm emission filters), neuron (475/350 nm excitation and 535/400 nm emission filters) and glial cell (535 nm excitation and 610 nm emission filters) images are collected using the ImageExpress Micro automatic fluorescent microscopy system (Molecular Devices, Sunnyvale, Calif.) employing a Nikon 10× Plan Fluor objective and Cool Snap HQ CCD camera. The Neurite Outgrowth module in the MetaMorph Imaging software can be used to automatically count total cell number, number of neuron cells, and the extent of neurite outgrowth.
The neurite outgrowth observed for untreated cells is set to 100% response. Treatment of cells with compounds prior to and concomitantly with Aβ1-42 gave a neuroprotective effect with neurite outgrowth maintained or enhanced relative to untreated cells.

Series [2] has as its system SK-N-SH human neuroblastoma cells. Nature of the series: Serum Deprivation/JC-1 Mitochondrial Membrane Potential (MMP) Assay. In kind it is cell-based. The following applies: Homo sapiens, SK-N-SH, 18 h; for Emax: percent maximal intensity in JC-1 ratio normalized to peak value for 10 μM dimebolin, read-out: JC-1 max %; for EC50: serum deprivation ~18 hours, JC-1 ratio normalized to peak value for 10 μM dimebolin, single curve fit to mean of n=2-3. On the procedure:
SK-N-SH human neuroblastoma cells obtained from American Type Culture Collection (Rockville, Md.) were maintained in the log phase of growth in Minimal Essential Media (MEM), 10% heat inactivated fetal calf serum and 100 units/mL antibiotic-antimycotic (AA). Cells were cultured and maintained in a humidified incubator at 37° C. under 5% CO2 and 95% air. Cells were trypsinized (0.25%) and subcultured every 3 days and used from 15-18 passages. All cell culture supplies were obtained from Invitrogen (Carlsbad, Calif.).
SK-N-SH cells were plated 2-3 days in advance at a concentration of 50,000 cells/well onto collagen coated black-walled 96 well plates (Becton-Dickinson, Bedford, Mass.) in a total volume of 200 μL. On day of experimental treatment, the media containing serum was aspirated from each well and rinsed once with MEM/1% AA without serum. The cells then were incubated overnight in 100 μL of MEM/1% AA (no serum) with and without dimebolin or novel chemical entities overnight for ˜18 hours. The following day, JC-1 dye (5,5′,6,6′-tetrachloro-1,1′,3,3′-tetraethylbenzimidazolcarbocyanide) was diluted 1:10 into MEM media according to the JC-1 Mitochondrial Membrane Potential Assay Kit: (Cayman Chemical Company, Ann Arbor, Mich.) and then 10 μL of the JC-1 dye solution was added to each well. The plates were centrifuged for 5 minutes at 400×g at room temperature followed by 35 minute incubation at 37° C. The plates were washed twice with 200 μL of provided Assay Buffer followed an addition of 100 μL of Assay Buffer to each well. The plates were read with an excitation and emission of 560 nm and 595 nM for red fluorescence and with an excitation and emission of […] and 535 nM for green fluorescence to determine the final JC-1 value taking the red to green fluorescence ratio. This assay is based on change in mitochondrial membrane potential (MMP) using this lipophilic cationic dye, JC-1, by monitoring the changes in the ratio of red to green fluorescence as the MMP depolarizes. This change in MMP reflects the health of the cell with healthy, viable cells have a high JC-1 ratio and high MMP whereas apoptotic, unhealthy cells have a low JC-1 ratio or low MMP.
For the ability of compounds to reverse the stress due to serum deprivation and increase the JC-1 ratio, the percent maximal intensity in JC-1 ratio was normalized to that induced by the peak value for 10 μM dimebolin and plotted against the compound concentration to calculate EC50 values and to control for plate-to-plate variability. Concentration-response data were analyzed using GraphPad Prism (San Diego, Calif.); the EC50 values were derived from a single curve fit to the mean data of n=2-3, in duplicates.
All compounds were dissolved in dimethyl sulfoxide at 10 mM stock solutions and tested at a concentration that the dimethyl sulfoxide levels never exceeded 1%.

In series [3] the test system is mouse model of multiple sclerosis. The following applies: in vivo administration; cited from earlier work.
The subject of series [4] is primary rat cortical neurons. The settings on record: comparable to that evoked by BDNF; cited from earlier work.
Series [5] relates to patients with mild-to-moderate Alzheimer's disease. The settings on record: cited from earlier work.

Consider `c1ccc(COc2cccc3c4c([nH]c23)C[C@H]2CCC[C@@H]4N2)cc1` (stereo in doubt) [Example 9, (7R*,11S*)-4-(benzyloxy)-6,7,8,9,10,11-hexahydro-5H-7,11-epiminocycloocta[b]indole], for which, in series [1], the “% Attenuation Effect of 5 μM Aβ 1-42” value was 45 (n = 1) %, the Emax was determined as 115% and the “Concentration (nM) of Maximum Effect” value came to 0.03 nM. In addition, in series [2], the Emax is 130% and the half-maximal effective concentration (EC50) worked out at 6.03 µM.

Take `O=C1C=C(c2ccccc2)C(=O)N1c1cccc(Cl)c1` [1-(3-chlorophenyl)-3-phenyl-pyrrole-2,5-dione]: the “Development of the disease” value in series [3] was “significantly prevented the development of the disease”.

Consider `Cc1ccc(/C=C/c2cccc3c4c([nH]c23)CC2CCC4N2C)cn1` (centres unmarked) [Example 1, 11-methyl-4-[(E)-2-(6-methylpyridin-3-yl)vinyl]-5,6,7,8,9,10-hexahydro-7,10-epiminocyclohepta[b]indole], for which, in series [1], the “% Attenuation Effect of 5 μM Aβ 1-42” value was 27 (n = 1) %, the Emax turned out to be 103% and the “Concentration (nM) of Maximum Effect” value turned out to be 0.3 nM. In addition, in series [2], the Emax worked out at 214% and the EC50 was determined as 3.19 µM.

Take `Cc1ccc(/C=C/c2cccc3c4c([nH]c23)CC2CNC4C2)cn1` (centres unmarked) [Example 30, 7-[(E)-2-(6-methylpyridin-3-yl)vinyl]-1,2,3,4,5,6-hexahydro-1,4-methanoazepino[4,3-b]indole]: in series [2], the Emax worked out at 118% and the half-maximal effective concentration (EC50) turned out to be 5.59 µM.

Regarding `c1cc(-c2ccncc2)c2[nH]c3c(c2c1)C1CCC(C3)N1` (centres unmarked) [Example 31, 4-(pyridin-4-yl)-5,6,7,8,9,10-hexahydro-7,10-epiminocyclohepta[b]indole], in series [2], the Emax is 22.3% and the EC50 is over 31.6 µM.

On to `c1ccc2ncc(-c3cccc4c5c([nH]c34)CC3CCC5N3)cc2c1` (centres unmarked) [Example 32, 4-(quinolin-3-yl)-5,6,7,8,9,10-hexahydro-7,10-epiminocyclohepta[b]indole], for which, in series [2], the Emax worked out at 174% and the EC50 was found to be 2.58 µM.

For the compound `Cc1ccc(-c2cccc3c4c([nH]c23)CC2CCC4N2C)cn1` (centres unmarked) [Example 33, 11-methyl-4-(6-methylpyridin-3-yl)-5,6,7,8,9,10-hexahydro-7,10-epiminocyclohepta[b]indole], in series [2], the Emax turned out to be 158% and the EC50 was determined as 5.08 µM.

As for `CN1C2CCC1c1c([nH]c3c(-c4cnc5ccccc5c4)cccc13)C2` (centres unmarked) [Example 34, 11-methyl-4-(quinolin-3-yl)-5,6,7,8,9,10-hexahydro-7,10-epiminocyclohept[b]indole], in series [2], the Emax is 189% and the EC50 was found to be 1.34 µM.

On to `c1cncc(-c2cccc3c4c([nH]c23)CC2CCC4N2)c1` (centres unmarked) [Example 35, 4-(pyridin-3-yl)-5,6,7,8,9,10-hexahydro-7,10-epiminocyclohepta[b]indole], for which, in series [2], the Emax was 87.2% and the concentration giving a half-maximal response (EC50) came to 11 µM.

Regarding `COC(=O)N1C2CCC1c1c([nH]c3c(-c4cnc5ccccc5c4)cccc13)C2` (centres unmarked) [Example 36, methyl 4-(quinolin-3-yl)-5,6,7,8,9,10-hexahydro-7,10-epiminocyclohepta[b]indole-11-carboxylate], in series [2], the Emax came to 140% and the EC50 was 1.13 µM.

As to `Cc1ccc(-c2cccc3c4c([nH]c23)CC2CNC4C2)cn1` (centres unmarked) [Example 37, 7-(6-methylpyridin-3-yl)-1,2,3,4,5,6-hexahydro-1,4-methanoazepino[4,3-b]indole], in series [2], the Emax is 131% and the EC50 stood at 7.33 µM.

As to `Cc1ccc(C#Cc2cccc3c4c([nH]c23)CC2CNC4C2)cn1` (centres unmarked) [Example 38, 7-[(6-methylpyridin-3-yl)ethynyl]-1,2,3,4,5,6-hexahydro-1,4-methanoazepino[4,3-b]indole], in series [2], the Emax was 120% and the EC50 stood at 5.88 µM.

Take `Cc1ccc2c(c1)c1c(n2CCc2ccc(C)nc2)CCN(C)C1` [dimebolin, 2,3,4,5-tetrahydro-2,8-dimethyl-5-[2-(6-methyl-3-pyridinyl)ethyl]-1H-pyrido[4,3-b]indole]: the Neurite outgrowth result in series [4] is on record as “increase neurite outgrowth”. Further, the “Clinical course of disease (ADAS-Cog, improvement over baseline)” value in series [5] (20 mg three times a day (60 mg/day)) is listed as “significant improvement”. The “Most frequent adverse event” value in series [5] (reported clinical studies) is listed as “dry mouth”.

Broadly, the EC50 is the concentration needed to bring the measured effect to its halfway point.
